Where “and” joins values, the source holds several entries; their conditions need not be identical. Equal values may be shown once. Entries after “also recorded” stand apart in the source; their conditions may differ. Read-outs that look alike come from different tables or passages of the source.
How the values were obtained:
[1] = biological target: T1, human NCX 1.1 current (I NCX) (Homo sapiens, UniProt P32418); assay: NCX current (I NCX), whole‐cell patch‐clamp in hiPSC‐derived cardiomyocytes; type: cell-based; settings: hiPSC‐CMs, 35–37°C
T1 construct: Cor.4U cells express cardiac proteins including NCX1; host or cells: Cor.4U hiPSC-derived cardiomyocytes
Description: Human‐induced pluripotent stem cell (hiPSC)‐derived CMs (Cor.4U CMs; RRID:CVCL_Y550) were thawed, seeded onto gelatine‐coated coverslips, and maintained, as described in the manufacturer's protocol.
Manual patch‐clamp recordings of membrane currents (I NCX, L‐type Ca^2+ channel current [I CaL], human cardiac sodium 1.5 current [I Na], and I hERG) were undertaken using either an Axopatch 200B or Axopatch ID amplifier (Molecular Devices, USA), using the whole‐cell configuration. […]
The measurement of current in the K^+‐free bath solution using a ramp voltage protocol at 20‐s intervals represented the first control, after which values were measured in the presence of one or more increasing concentrations of ORM‐11372 and finally upon exposure to 10‐mM NiCl2. […] Therefore, to enhance the inward current and enable a solution with a certain concentration of ORM‐11372 to be measured, the concentrations of the K^+‐free and pipette solutions were altered. […] The outward human I NCX inhibition current was measured at the following ORM‐11372 concentrations: 3 (n = 4), 10 (n = 6), 30 (n = 4), and 100 (n = 3) nM. […] The outward I NCX current in rat CMs was measured at concentrations ranging from 1 to 1,000 nM (n = 5). The inward I NCX current in rats was measured in additional experiments under changed conditions, to enhance the inward I NCX current. […]

[2] = tested on: guinea pig papillary muscle; assay: In vitro contraction dynamics in guinea pig papillary muscle; settings: 1 Hz, 37°C
Description: Guinea pigs (both sex, body weight ranging 342–565 g, Dunkin Hartley, M&B A/S, Ry, Denmark) were used in the study. The animals were housed in solid bottom polycarbonate cages (Makrolon® IV, 385 × 590 × 200 mm) with stainless steel wire mesh lids, up to three animals of same sex per cage. Autoclaved aspen chips (Tapvei Ky, Kaavi, Finland) were used as bedding. A commercially available rodent SDS FD1 (P) SQC pellet diet (Special Diet Services Ltd, Witham, England) and tap water from the public supply (Espoon vesilaitos, Espoo, Finland) were available ad libitum in polycarbonate bottles (800–1,000 ml) with plastic caps (Scanbur A/S, Ejby, Denmark).
Guinea pigs were killed by a blow on the skull and the heart will be excised. Right ventricular papillary muscle was dissected and rinsed in ice‐cold Tyrode's solution. […]
The signal was acquired with a validated acquisition system ACFO v1.0 (Fision Oy, Finland). The following parameters were measured: twitch tension (Tw), rest tension (RT), time to peak tension (TTP), and half relaxation time (HRT). […]
The baseline twitch tensions were measured after a stabilization period of 20–40 min. Thereafter, vehicle (1.1% DMSO) or ORM‐11372 in Tyrode's solution was superfused into the cuvette for 15 min, and the effects were measured from the steady‐state level. […]

[3] = tested on: NCX; set-up: method as in Jost et al., 2013; Kohajda et al., 2016; settings: Dog, reference not given, ref Jost et al., 2013, Kohajda et al., 2016, cited from earlier work

Structure (SMILES)	IC50 ([1]; Ni^2+‐sensitive current at +60 mV, read-out: IC50 outward (reverse) I NCX)	IC50 ([1]; Ni^2+‐sensitive current at −100 mV, read-out: IC50 inward (forward) I NCX)	half relaxation time [2]	twitch tension ([2]; compared with vehicle)	IC50 ([3]; read-out: IC50 NCX forward) [nM]	IC50 ([3]; read-out: IC50 NCX reverse) [nM]
Nc1cccc(-c2ccc(CNc3ccc(F)cc3)o2)c1 [ORM‐11372]	4.8 nM and 5 nM	5.6 nM and 6 nM	unchanged; also recorded: did not affect	increased		
O=C(CN1CCC(O)CC1)Nc1ccc(Oc2ccc3c(c2)CCC(c2ccccc2)O3)nc1 (stereo not drawn) [ORM-10962]					67	55
